The values that follow come from ChEMBL document CHEMBL1146461, “Vibsane diterpenoids from the leaves and flowers of Viburnum odoratissimum” (2004).

Test [1] has as its system NUGC-3. The test can be described thus: Cytotoxicity against human NUGC3 assessed as survival at 20 ug/ml by MTS method. Conditions: read-out: Survival. In kind it is functional.
Test [2] in a line: Cytotoxicity against human HONE1 assessed as survival at 20 ug/ml by MTS method. In kind it is functional. The following applies: read-out: Survival.

The structures appear in SMILES notation.

On to `C=C(C)C(CC[C@@]1(C)CC=C(COC(C)=O)C(=O)[C@@H](CC(C)=O)[C@@H]1/C=C/OC(=O)C=C(C)C)OC(C)=O` (stereo not given in full), for which the viability at 20 µg/mL in test [1] and in test [2] was 0% throughout. `CC(=O)C[C@@H]1C(=O)C(COC(C)=O)=CC[C@](C)(C/C=C/C(C)(C)OC(C)=O)[C@H]1/C=C/OC(=O)C=C(C)C`: the viability at 20 µg/mL in test [1] and in test [2] was 0% throughout. Consider `C=C(C)C(O)CC[C@@]1(C)CC=C(CO)C(=O)[C@H](CC(C)=O)[C@@H]1/C=C/OC(=O)C=C(C)C` (stereo not given in full), for which the viability at 20 µg/mL in test [1] amounted to 58%.
